We go through 25 molecules from ChEMBL document CHEMBL1201862, “PubChem BioAssay data set” (2004).

Test systems include DLD-1; DMS-273; HOP-18; KM-20L2; LXFL 529; SNB-78; XF498; RXF 631; DMS-114.
What all share (assay): NCI-60 cell line screen, 48 h

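A five-concentration, 48-hour dose response in 96-well plates underlies each endpoint, interpolated linearly between surrounding concentrations. GI50 marks 50% less growth.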 Activity calls are given as the source filed them. No stated cut-off is given here; in the data, active = GI50 up to about 1.1 µM and inactive = higher. Some results are limits rather than exact numbers.

Take `O=C(/C=C/c1ccccc1)Oc1cccc2cccnc12`: the GI50 in the experiment with DLD-1 is 4.37 µM (inactive); in the experiment on DMS-273 it was 23 µM (inactive); in the experiment on HOP-18, 25.8 µM (inactive); in the experiment with KM-20L2, 2.2 µM (inactive); with LXFL 529 it was 4.06 µM (inactive); in the experiment on SNB-78, 21 µM (inactive). The GI50 in the experiment with XF498 was 11.3 µM (inactive).
On to `O=c1c2cc(Br)ccc2[nH]c(=S)n1-c1ccccc1`, for which the GI50 in the experiment with DLD-1, with DMS-273, in the experiment with HOP-18, in the experiment on KM-20L2, in the experiment with RXF 631 and with SNB-78 was > 100 µM (inactive) throughout.
`CCN(CC)C(=S)SC1CCOP(=O)(N(CCCl)CCCl)N1C` (stereo unspecified): the GI50 in the experiment with DLD-1 was 0.126 µM (active); in the experiment with DMS-114 it was 0.19 µM (active); in the experiment on DMS-273 it was 0.214 µM (active); in the experiment on HOP-18, > 100 µM (inactive); in the experiment with KM-20L2, 38.7 µM (inactive); in the experiment with LXFL 529, 0.0372 µM (active). The GI50 with SNB-78 was 49.2 µM (inactive).
Consider `Cc1cc(NC(=O)NC(=O)c2ccccc2NC(=O)C(C)N)ccc1Oc1ncc(Br)cn1` (stereo unspecified), for which the GI50 with DLD-1 is 0.331 µM (active); in the experiment with DMS-114 it was 1.13 µM (inactive); in the experiment with DMS-273, 0.046 µM (active); in the experiment on KM-20L2, 0.0946 µM (active); in the experiment with LXFL 529, 0.396 µM (active); with SNB-78, 0.146 µM (active).
As to `CNS(=O)(=O)NN(C)S(=O)(=O)c1ccccc1`, the GI50 with DLD-1, with DMS-114, in the experiment on DMS-273, with KM-20L2 and in the experiment with LXFL 529 was > 100 µM (inactive) in each case.
As to `CN(CC(=O)O)S(=O)(=O)c1ccc2ccccc2c1`, the GI50 in the experiment with DLD-1, with DMS-273, in the experiment with HOP-18, in the experiment on KM-20L2, in the experiment on LXFL 529 and with RXF 631 was > 100 µM (inactive) each time. Further, in the experiment on XF498, the GI50 was > 100 µM (inactive).
`CC(Oc1ccc2c(-c3ccc(Cl)cc3)cc(=O)oc2c1)C(=O)O` (stereo unspecified): the GI50 in the experiment with DLD-1, in the experiment with HOP-18, in the experiment on KM-20L2, in the experiment with LXFL 529, in the experiment on RXF 631 and in the experiment with SNB-78 was > 100 µM (inactive) in each case. Also, the GI50 in the experiment on XF498 was 2.35 µM (inactive).
Take `COC(=O)C12CC(C3CC31)C1CC12` (stereo unspecified): the GI50 in the experiment with DLD-1, with DMS-114, in the experiment on DMS-273, in the experiment with HOP-18, in the experiment on KM-20L2 and in the experiment on LXFL 529 was > 100 µM (inactive) in each case. In addition, the GI50 with RXF 631 is > 100 µM (inactive).
On to `CC(C)(C)N/N=C(\C(=O)Nc1cccc(Cl)c1)C1C(=O)Nc2ccccc2[S+]1[O-]` (stereo unspecified), for which the GI50 in the experiment with DLD-1, in the experiment with DMS-114, in the experiment on DMS-273, with HOP-18, with KM-20L2 and in the experiment with LXFL 529 was > 100 µM (inactive) each time. Further, the GI50 in the experiment with RXF 631 and with XF498 was > 100 µM (inactive) each time.
As for `Nc1ccc2c(SCc3ccc([N+](=O)[O-])cc3)c3ccccc3nc2c1`, the GI50 in the experiment on DLD-1 was 2.39 µM (inactive); in the experiment with DMS-114 it was 15 µM (inactive); with DMS-273, 19.9 µM (inactive); with HOP-18, 13.5 µM (inactive); with KM-20L2 it was 16.5 µM (inactive); with LXFL 529, 6.08 µM (inactive). Further, the GI50 with SNB-78 was 21.9 µM (inactive); with XF498, 14.6 µM (inactive).
Consider `C/C=C(\N=C=S)C(=O)OC1C(COC(C)=O)OC([C@]2(O)CC(=O)C(N)=C(C(=O)O)C2=O)C(O)C1OC1CC(OC)C(O)([C@@H](C)OC(=O)[C@@H](C)CC)C(C)O1` (stereo partly specified), for which the GI50 with DLD-1 was 10.9 µM (inactive); in the experiment on DMS-114, 6.68 µM (inactive); in the experiment on DMS-273 it was 16.3 µM (inactive); in the experiment on HOP-18 it was 16.8 µM (inactive); in the experiment with KM-20L2, 6.92 µM (inactive); with LXFL 529, 2.06 µM (inactive). Moreover, the GI50 was 5.21 µM (inactive) with SNB-78 and 2.49 µM (inactive) in the experiment on XF498.
As for `CCOC(=O)NC(=O)c1cn(C(CC)COC(=O)NCCCCCCNC(=O)OCC(CC)n2cc(C(=O)NC(=O)OCC)c(=O)[nH]c2=O)c(=O)[nH]c1=O` (stereo unspecified), the GI50 in the experiment with DLD-1 is > 10 µM (inactive); in the experiment with DMS-114 it was > 100 µM (inactive); in the experiment with DMS-273, > 100 µM (inactive); in the experiment with HOP-18, > 100 µM (inactive); in the experiment on KM-20L2, > 100 µM (inactive); with LXFL 529, > 100 µM (inactive). In the experiment with SNB-78, the GI50 is > 100 µM (inactive).
As for `O=c1n(-c2ccccc2)c(=O)n2n1C1C=CC2C2C(C1)C2(Cl)Cl` (stereo unspecified), the GI50 in the experiment with DLD-1, with DMS-114, in the experiment with DMS-273, with KM-20L2, with LXFL 529 and in the experiment on RXF 631 was > 100 µM (inactive) throughout. Moreover, the GI50 in the experiment with SNB-78 and in the experiment with XF498 was > 100 µM (inactive) each time.
`[O-][S+]1c2ccccc2N=C(c2ccc3ccccc3c2)CC1C1=CC=CCC1` (stereo unspecified): the GI50 in the experiment with DLD-1 is 12.9 µM (inactive); in the experiment on DMS-114 it was 15.2 µM (inactive); in the experiment on DMS-273 it was 19.2 µM (inactive); with HOP-18, 35.8 µM (inactive); in the experiment with KM-20L2 it was 19.5 µM (inactive); in the experiment with LXFL 529, 14.8 µM (inactive). In addition, the GI50 with RXF 631 is 17.2 µM (inactive); in the experiment with XF498, 17.1 µM (inactive).
For the molecule `CC1=C(C(=O)Nc2ccccc2)C(c2ccccc2)C(C(=O)Nc2ccccc2)=C(C)N1`, the GI50 in the experiment with DLD-1 was 52.7 µM (inactive); in the experiment on DMS-114, 19.2 µM (inactive); in the experiment with DMS-273, 47.4 µM (inactive); in the experiment with HOP-18, > 100 µM (inactive); in the experiment on KM-20L2, 25.2 µM (inactive); in the experiment on LXFL 529, 22.1 µM (inactive). In addition, the GI50 in the experiment with SNB-78 was > 100 µM (inactive).
On to `CCN(CC)CCNc1ccc2ncn3c4cc(O)ccc4c(=O)c1c23`, for which the GI50 in the experiment on DLD-1 is 3.76 µM (inactive); in the experiment with DMS-114, 4.29 µM (inactive); in the experiment on DMS-273 it was 2.77 µM (inactive); with KM-20L2, 3.7 µM (inactive); in the experiment with LXFL 529, 2.56 µM (inactive); in the experiment on RXF 631, 2.1 µM (inactive). The GI50 in the experiment with SNB-78 is 5.35 µM (inactive); with XF498, 2.9 µM (inactive).
As to `CC(C)(C)c1cc(C(O)(C(F)(F)F)C(F)(F)F)c2c(c1)C(C(F)(F)F)(C(F)(F)F)OC(C)(C(C)(C)C)N2` (stereo unspecified), the GI50 was 2.85 µM (inactive) with DLD-1; 2.74 µM (inactive) with DMS-114; 3.06 µM (inactive) with DMS-273; 2.76 µM (inactive) with HOP-18; 3.03 µM (inactive) in the experiment with KM-20L2; 2.96 µM (inactive) in the experiment with LXFL 529. The GI50 in the experiment with SNB-78 is 5.87 µM (inactive); with XF498 it was 1.63 µM (inactive).
For the molecule `O=C1CCCCCCC2=C1C(Sc1ccccc1)CC2` (stereo unspecified), the GI50 was 23.7 µM (inactive) in the experiment on DMS-114; 26.2 µM (inactive) in the experiment with DMS-273; > 100 µM (inactive) in the experiment on HOP-18; 41.6 µM (inactive) with KM-20L2; 35.4 µM (inactive) with LXFL 529; > 100 µM (inactive) in the experiment with SNB-78.
As to `COC1/C=C\C=C(/C)C(=O)Nc2cc3nc4ccc(Br)cc4oc-3c(c2=O)CC(C)CC(OC)C(O)C(C)/C=C(\C)C1OC(N)=O` (stereo unspecified), the GI50 in the experiment on DLD-1 was 0.0447 µM (active); with DMS-114, 0.0604 µM (active); in the experiment on DMS-273 it was < 0.0216 µM (active); in the experiment with HOP-18, 0.01 µM (active); in the experiment on KM-20L2 it was < 0.0181 µM (active); in the experiment on LXFL 529, < 0.0147 µM (active). For the same molecule, the results for the GI50 with SNB-78 and in the experiment with XF498 were 0.998 µM (active) and < 0.0202 µM (active), respectively.
Consider `CN1C(=O)CC2(C)c3cc(O)cc(Br)c3N(C)C12` (stereo unspecified), for which the GI50 in the experiment with DMS-114 is > 100 µM (inactive); with HOP-18, 31.6 µM (inactive); in the experiment with KM-20L2, > 100 µM (inactive); in the experiment with LXFL 529, > 100 µM (inactive); in the experiment with SNB-78, > 100 µM (inactive); in the experiment on XF498 it was > 100 µM (inactive).
For `O=C(CC1C(=O)Nc2ccccc2S1(=O)=O)Nc1cc(Cl)ccc1Cl` (stereo unspecified), the GI50 in the experiment on DLD-1 was 15 µM (inactive); with DMS-114, 12.5 µM (inactive); in the experiment on KM-20L2, 15.6 µM (inactive); with LXFL 529, 14.1 µM (inactive); in the experiment on RXF 631 it was 28.4 µM (inactive); in the experiment on SNB-78, 12.7 µM (inactive). Besides, the GI50 with XF498 is 14.1 µM (inactive).
On to `CCCCCCCCCCCCC(Br)C(=O)SCCNC(=O)CCNC(=O)[C@@H](O)C(C)(C)COP(=O)(O)OP(=O)(O)OCC1OC(n2cnc3c(N)ncnc32)C(O)C1OP(=O)(O)O` (stereo partly specified), for which the GI50 in the experiment on DLD-1, with DMS-114, in the experiment with DMS-273, in the experiment on HOP-18, in the experiment with KM-20L2 and with LXFL 529 was > 56.5 µM (inactive) each time. Moreover, the GI50 in the experiment with SNB-78 and with XF498 was > 56.5 µM (inactive) throughout.
For the molecule `C/C(=C\C(C[C@](C)(O)C(O)CCC#C[Si](C)(C)C)S(=O)(=O)c1ccccc1)CC/C=C/CO[Si](C)(C)C(C)(C)C` (stereo partly specified), the GI50 with DLD-1 is 23.6 µM (inactive); in the experiment on DMS-114, 15.2 µM (inactive); in the experiment with DMS-273 it was 15.7 µM (inactive); in the experiment with KM-20L2, 8.61 µM (inactive); with RXF 631, 9.66 µM (inactive); in the experiment with SNB-78 it was 16.8 µM (inactive). Moreover, in the experiment on XF498, the GI50 was 13.2 µM (inactive).
For the molecule `C=C1C(=O)C23C(CC(OC(C)=O)C1[C@@H]2OC(C)=O)C1(C)C(OC(C)=O)CCC(C)(C)C1C[C@@H]3OC(C)=O` (stereo partly specified), the GI50 with DMS-114 is 1.14 µM (inactive); with DMS-273 it was 1.68 µM (inactive); in the experiment on KM-20L2 it was 1.72 µM (inactive); with LXFL 529, 1.35 µM (inactive); in the experiment with SNB-78, 1.53 µM (inactive).
With `COC(=O)[C@@]12OC[C@]34[C@H]([C@@H](O)[C@@H]1O)[C@@]1(C)CC(=O)C(O)=C(C)[C@@H]1C[C@H]3OC(=O)[C@H](OC(=O)/C=C(\C)C(C)C)[C@@H]24` [BRUCEANTIN], the GI50 in the experiment with DLD-1 was 0.02 µM (active); in the experiment with HOP-18, 0.0265 µM (active); with KM-20L2 it was 0.02 µM (active); in the experiment with LXFL 529, 3.5e-05 µM (active); with RXF 631, 0.000314 µM (active); with SNB-78 it was 0.02 µM (active). Also, the GI50 with XF498 is 0.02 µM (active).
